# Laboratory results as given in patent publication EP3566700A1, “AMBROXOL FOR DNA DAMAGE REPAIR DISEASE THERAPIES” (Universitat Autònoma de Barcelona, priority 2018, dated 2019).
# Columns and labels:
# [1] = system: FANCA-deficient lymphoblastoid cell lines; assay: FCM assay: cell cycle analysis (cells in G2/M phase); format: cell-based, human; settings: three FANCA-deficient cell lines; basal around 20% without treatment
# FANCD2 ubiquitination = FANCD2 ubiquitination by Western blotting; format: cell-based, human; settings: two FANCA-deficient lymphoblastoid cell lines
# Procedure: To disregard a direct effect on FA/BRCA pathway, FANCD2 ubiquitination was analyzed by Western blotting in two different FANCA-deficient lymphoblastoid cell lines.
# Fanca-deficient mice [2] = assay: Histopathology study of spleen, liver and lung; format: in vivo
# Procedure: (§1) Fanca-deficient mice strain was Fanca^tm1Faw and genetic background 129P2/OlaHsd * FVB with exon deletion 4-7 (c.f. Cheng NC et al., "Mice with a targeted disruption of the Fanconi anemia homolog Fanca", Hum Mol Genet. 2000, vol. 9(12), pp. 1805-11). 30 male mice were randomized by age (12 to 16 weeks) and weight (25 grams on average) in three experimental groups (water, NAC and AMB).
# (§2) NAC (40mM) (used for comparative purposes) and Ambroxol (1mM) were administered in drinking water (filtered and UV irradiated) ad libitum. To monitor MN on blood cells (erythrocytes and reticulocytes) mice were tail bleeded on weeks 1, 2, 4, 6, 8, 12, 16 and 24. Hematological parameters and blood counts were also evaluated. At the end of the study mice were euthanized and bone marrow, blood and organ samples (spleen, lung, and liver) collected.
# A total of 7 mice were studied in the placebo (water) group and 10 mice in the NAC or Ambroxol treated groups. Samples (spleen, liver and lung) were fixed overnight in 10 % neutral buffered formalin, embedded in paraffin, sectioned in 3 µm thick and dried. Slides were dewaxed and re-hydrated through a series of graded ethanol until water and finally stained with hematoxilin-eosin (H-E). Photographs were taken using an Olympus DP73 digital camera and a Vanox AHBS3 Olympus microscope.
# Fanca-deficient mice [3] = assay: Telomere fluorescence analysis on spleen tissue sections by Q-FISH; format: in vivo; settings: for telomere length: compared with control treatment (water)
# Procedure: as §1, §2
# Quantitative telomere fluorescence in situ hybridization (Q-FISH) was performed directly on spleen tissue sections as previously described (c.f. Flores I et al., "The longest telomeres: a general signature of adult stem cell compartments", Genes Dev. 2008; vol. 22(5), pp. 654-67). Spleen tissue was hybridized with the PNA telomeric oligonucleotide (CCCTTA)3 labeled with Cy3 (PE Biosystems). After that, digital images were acquired.
# Confocal microscopy was performed at room temperature with a laser-scanning microscope (TSC SP5) using a Plan Apo 63Å-1.40 NA oil immersion objective (HCX). Maximal projection of z-stack images generated using advanced fluorescence software (LAS) was analyzed with Definiens XD software package. DAPI images were used to detect telomeric signals inside each nucleus. To study telomere length, average intensity of individual telomeres of around 940 nuclei per mouse was analyzed. To study short telomeres, intensity of around 31,000 individual telomeres was studied per mouse. A total of 7 mice were studied in the control group and 10 mice in NAC or Ambroxol groups.
# Fanca-deficient mice [4] = assay: Chronic treatment of Fanca-deficient mice: survival and general health; format: in vivo
# Procedure: as §1, §2
# [5] = affected mice/mice studied, H2O 0/7
# [6] = affected mice/mice studied, H2O 1/7
# [7] = affected mice/mice studied, H2O 2/7
smiles,measurement,setting,value
"Nc1c(Br)cc(Br)cc1CN[C@H]1CC[C@H](O)CC1 [Ambroxol, trans-4-(2-amino-3,5-dibromobenzylamino)cyclohexanol]",percentage of cells in G2/M phase in basal conditions,[1],lowered this percentage
same,FANCD2 ubiquitination,FANCD2 ubiquitination,unable to restore FANCD2 ubiquitination
same,"Liver, Light/moderate: Steatosis",Fanca-deficient mice [2]; [5],2/10
same,"Lung, Light/moderate: Pleuritis",Fanca-deficient mice [2]; [5],1/10
same,"Liver, Light/moderate: Vascular congestion",Fanca-deficient mice [2]; [6],1/10
same,"Liver, Severe: Multiple myeloid precursor infiltration",Fanca-deficient mice [2]; [6],0/10
same,"Lung, Light/moderate: BALT activation",Fanca-deficient mice [2]; [6],1/10
same,"Lung, Light/moderate: Fibrosis",Fanca-deficient mice [2]; [6],0/10
same,"Lung, Light/moderate: Interstitial pneumonia",Fanca-deficient mice [2]; [6],5/10
same,"Lung, Severe: General vascular congestion",Fanca-deficient mice [2]; [6],0/10
same,"Lung, Severe: Myeloid-shape cellullar embolism",Fanca-deficient mice [2]; [6],0/10
same,"Lung, Severe: Osseous metaplasia",Fanca-deficient mice [2]; [6],0/10
same,"Spleen, Light/moderate: Lymphoid hyperplasia",Fanca-deficient mice [2]; [6],3/10
same,"Liver, Severe: Vesicular steatosis",Fanca-deficient mice [2]; [7],0/10
same,"Spleen, Severe: Spleen hyperplasia (likely linfoma)",Fanca-deficient mice [2]; [7],0/10
same,"Liver, Light/moderate: Chronic hepatitis (perivascular)","Fanca-deficient mice [2]; affected mice/mice studied, H2O 3/7",7/10
same,severe organ defects,Fanca-deficient mice [2]; end of experiment (1 year),no severe organ defects
same,improvement in telomere's length with respect to NAC,Fanca-deficient mice [3]; one year of treatment,about 5 fold
same,telomere length,Fanca-deficient mice [3]; one year of treatment,significant increase
same,length of short telomeres,Fanca-deficient mice [3]; untreated versus Ambroxol treated mice,significantly shorter in untreated mice
same,proportion of short telomeres respect the total number of telomeres,Fanca-deficient mice [3]; untreated versus treated mice,significantly bigger in untreated mice
same,survival at the end of the experiment,"Fanca-deficient mice [4]; 1 year, Ambroxol 1mM in drinking water ad libitum, 40 % of control mice alive",All mice from the Ambroxol group were alive and healthy
same,general health condition and survival,Fanca-deficient mice [4]; related to untreated mice,improvement
"CC(=O)N[C@@H](CS)C(=O)O [NAC, N-acetylcysteine]",telomere length,Fanca-deficient mice [3]; one year of treatment,modest improvement
